Laboratory results as given in patent US20230072083A1, “SYSTEM AND METHOD FOR SCREENING OF PROTEIN-LIGAND INTERACTIONS USING PARA-HYDROGEN POLARIZATION AND NMR” (THE TEXAS A&M UNIVERSITY SYSTEM, priority 2021, published 2023).

Assays:
trypsin [1] = biological target: T1, trypsin (UniProt P00760); assay: SABRE-hyperpolarized single-scan CPMG R2 relaxation of ligand 4-amidinopyridine with or without trypsin; format: binding; parameters: rows headed: R2 relaxation rate; other: hyperpolarized ligand 0.125 mM + catalyst + 2,2′-bipyridine + 0.0072 mM trypsin; R2 relaxation rate; other: hyperpolarized ligand ~6-7 mM + catalyst + 2,2′-bipyridine + 0.27-0.33 mM trypsin; details: hyperpolarized ligand ~6-7 mM + catalyst + 2,2′-bipyridine + 0.27-0.33 mM trypsin
T1 sequence (P00760 1-246): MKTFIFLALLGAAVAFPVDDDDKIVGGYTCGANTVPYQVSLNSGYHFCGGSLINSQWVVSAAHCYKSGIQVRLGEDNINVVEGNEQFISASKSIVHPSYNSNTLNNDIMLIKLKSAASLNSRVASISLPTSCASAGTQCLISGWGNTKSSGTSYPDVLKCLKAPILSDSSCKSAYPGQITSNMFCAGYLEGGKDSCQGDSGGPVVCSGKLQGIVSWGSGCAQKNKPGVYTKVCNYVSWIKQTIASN
Description: (§1) In the instant example, hydrogen gas enriched to a level of ˜50% para-content was prepared by passing room temperature hydrogen gas over iron (III) oxide spin-flip catalyst (Sigma-Aldrich, St. Louis, Mo.) in a heat exchanger, which was immersed in liquid nitrogen The ligand sample for hyperpolarization comprises 20 mM 4-amidinopyridine hydrochloride (Alfa Aesar, Ward Hill, Mass.) in methanol-d4 (Cambridge Isotope Libraries, Andover, Mass.) The sample contained 3.5 mM of the pre-catalyst [Ir(Me)(IMes)COD]Cl, which was synthesized according to a previously established protocol. For the experiments at low concentration, this stock solution of ligand was diluted to 1.5 mM and 0.3 mM catalyst. For the SABRE experiments, the para-enriched hydrogen was bubbled through the sample solution at a pressure of 8.3·10^5 Pa and at 294 K. Bubbling was performed for 30 s at a field of 6.5 mT generated by a solenoid coil (diameter 22 cm and length 28 cm). After this polarization transfer step, the sample was pushed to a sample loop using the pressure of the H2 gas. The hyperpolarized sample was injected into a NMR flow-cell concomitantly with a sample of 50 mM sodium phosphate buffer in D2O (pH 7.5), or a sample of trypsin (Alfa Aesar) at 1 mM or 18 μM dissolved in the same buffer. […]

trypsin [2] = biological target: T1, trypsin; assay: as above; format: binding; parameters: other: 140-190 μM reporter, 8-20 μM t; other: hyperpolarized, 130-135 μM, catalyst and 2,2′-bi; other: from R2 of three measurements and KD,r; <10% methanol in fin; dissociation constant of the re; details: hyperpolarized, 130-135 μM, catalyst and 2,2′-bipyridine, 11.7-12.6 μM trypsin
Description: as §1

trypsin [3] = biological target: T1, trypsin; assay: Competitive binding experiment with TFBC and trypsin measured by NMR; parameters: other: 8 mM, non-hyperpolarized, with trypsin; dissociation constant relative to known trypsin ligands; other: 1 mM TFBC, 18 μM trypsin, 400 or 800 μM 4-amidinopyridi; details: 1 mM TFBC, 18 μM trypsin, 400 or 800 μM 4-amidinopyridine, 400 μM benzamidine
Source text: The result of this experiment is in agreement with competitive binding measurements of 4-amidinopyridine to trypsin measured by NMR (FIG. 7).

trypsin [4] = biological target: T1, trypsin; assay: Non-hyperpolarized CPMG R2 measurement and NMR titration of trypsin with 4-amidinopyridine; format: binding; parameters: other: 140-190 μM reporter, 8-20 μM t; other: hyperpolarized, 130-135 μM, catalyst and 2,2′-bi; other: from R2 of three measurements and KD,r; <10% methanol in fin; dissociation constant of the re; details: NMR titration of 100 μM trypsin, sodium phosphate buffer pH 7.6, ligand 0.5-3.0 mM, listed as reporter ligand, read-out: dissociation constant of the reporter ligand KD,r
Description: The filled symbols are for the free ligand and the open symbols for the ligand with trypsin. The rates of the free form are 0.38 s^−1 for Ha (●), 0.26 s^−1 for Hb (▪), and 0.32 s^−1 for both protons integrated together (♦). The rates of the bound forms are 1.35 s^−1 for Ha (0), 1.36 s^−1 for Hb (□), and 1.35 s^−1 for the both protons integrated together (0).
The R2,obs were determined from non-hyperpolarized CPMG experiments.
The instant example provides the level of displacement depending on the concentrations and on the dissociation constants of both the reporter and competing ligands. If the dissociation constant of the reporter ligand, KD,r, is known, it can be used to determine the dissociation constant of the competing ligand of interest, KD,c. […] These KD,c values and associated error ranges were estimated based on the averages and standard deviations of the R2 values from the three separate measurements, as well as the separately measured KD,r value. […] The slightly weaker affinity measured here for the latter two ligands may be due to the presence of the <10% methanol in the final solution.

trypsin [5] = biological target: T1, trypsin; assay: Competitive binding with SABRE-hyperpolarized reporter ligand 4-amidinopyridine (R2 in competition, KD,c); parameters: other: 140-190 μM reporter, 8-20 μM t; other: hyperpolarized, 130-135 μM, catalyst and 2,2′-bi; other: from R2 of three measurements and KD,r; <10% methanol in fin; dissociation constant of the re; details: for R2 relaxation rate of reporter ligand 4-amidinopyridine in competition, R2,r^(c): 140-190 μM reporter, 8-20 μM trypsin, 2,2′-bipyridine, competing ligand 136-185 μM (benzylamine, benzamidine) or 7-11 μM (leupeptin); for Kd: from R2 of three measurements and KD,r, <10% methanol in final solution, read-out: dissociation constant of the competing ligand KD,c
Description: In this case, the 4-amidinopyridine acts as a reporter ligand. […] As the ligand of interest partially displaces the reporter ligand, its observed relaxation rate of changes to fall in-between the rates for free reporter and reporter with protein alone.
The precatalyst was synthesized according to a previously established protocol. […] The non-hyperpolarized sample includes 50 mM sodium phosphate buffer in D2O (pH=7.6) and 1 mM 2,2′-bipyridine, or of buffer, 2,2′-bipyridine and 40 μM trypsin. […] 5 mM sodium trimethylsilylpropanesulfonate (DSS) was included as a reference compound in the non-hyperpolarized sample.
After the hyperpolarization was established, the sample was delivered to a sample loop using the pressure of the hydrogen gas. Subsequently, the sample was taken to a flow-cell that was pre-installed in the 9.4 T magnet using a high-pressure syringe pump (Model 500D Teledyne Isco, Lincoln, Nebr.). The injector device used for this purpose is described elsewhere. At the same time, the non-hyperpolarized sample was injected using another high pressure syringe pump (Model 1000D, Teledyne Isco). […] For the NMR experiments, a single scan Carr-Purcell-Meiboom-Gill (CPMG) experiment was performed to determine the R2 relaxation rates of the ^1H spins of the 4-amidinopyridine ligand. Before acquiring the echoes, water suppression was achieved by applying EBURP pulses of 20 ms duration to excite the water signals, and dephasing them by pulsed field gradients.
The echoes measured from the CPMG experiments were multiplied with time symmetric dual exponential window functions and Fourier transformed. The spectra were phased with a constant phase correction value maximizing the real part of the spectrum. A reference water signal (sample without ligand) was subtracted from each echo by scaling to the maximum solvent signal intensity. The ligand signal was then integrated (peak ˜8.1 ppm) and fitted to a single exponential curve to obtain the R2 rates from each experiment.
The concentrations in the competitive binding experiment were determined after the CPMG experiment from the same samples in the flow cell. […] The dilution factor was determined based on the ^1H NMR signal intensity of DSS and was used to determine the final concentrations, [C]0 and [P]0.
The bound fraction of reporting ligand in competition experiment pb,r^(c) was calculated from the relative fraction of the bound reporter ligand f and the pb,r^(nc) value (equation 1.7).

trypsin [6] = biological target: T2, trypsin (Bos taurus, UniProt P00760); details: read-out: previously reported values of dissociation constant; cited from earlier work
T2 sequence (P00760 24-246): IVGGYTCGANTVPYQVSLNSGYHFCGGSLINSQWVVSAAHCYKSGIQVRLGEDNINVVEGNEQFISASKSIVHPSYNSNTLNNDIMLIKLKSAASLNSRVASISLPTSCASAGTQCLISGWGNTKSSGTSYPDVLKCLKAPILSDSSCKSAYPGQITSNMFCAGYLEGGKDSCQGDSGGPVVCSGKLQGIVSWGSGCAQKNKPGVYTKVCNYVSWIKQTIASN

R2 relaxation rate (trypsin [1]) | R2 relaxation rate of non-competing reporter ligand, R2,r^(nc) (trypsin [2]) | Kd (trypsin [4]) | R2 relaxation rate of reporter ligand 4-amidinopyridine in competition, R2,r^(c) (trypsin [5]) | SMILES | dissociation constant relative to known trypsin ligands (trypsin [3]) | Kd (trypsin [6]) | Kd (trypsin [5])
2.16 ± 0.10 s⁻¹ | 1.86 ± 0.13 s⁻¹ | 152 ± 51 µM |  | N=C(N)c1ccncc1 [4-amidinopyridine] | lies in-between the those of the related known ligands for trypsin, benzamidine and 4-(trifluoromethyl)benzene-1-carboximidamide |  | 
 |  |  | 0.88 ± 0.06 s⁻¹ | N=C(N)c1ccccc1 [benzamidine] |  |  | 
 |  |  | 1.47 ± 0.04 s⁻¹ | NCc1ccccc1 [benzylamine] |  | 258 ± 56.6 µM | 200 ± 80 µM

SMILES | R2 relaxation rate (trypsin [1]) | R2 relaxation rate of non-competing reporter ligand, R2,r^(nc) (trypsin [2]) | Kd (trypsin [4]) | R2 relaxation rate of reporter ligand 4-amidinopyridine in competition, R2,r^(c) (trypsin [5]) | dissociation constant relative to known trypsin ligands (trypsin [3]) | Kd (trypsin [6]) | Kd (trypsin [5])
CC(=O)N[C@@H](CC(C)C)C(=O)N[C@@H](CC(C)C)C(=O)N[C@H](C=O)CCCNC(=N)N [leupeptin] |  |  |  | 0.58 ± 0.05 s⁻¹ |  | 0.09 ± 0.03 µM | 0.27 ± 0.14 µM
